For orientation: Kd means the free concentration of one partner at which half of the binding sites on the other are occupied at equilibrium, for simple one-to-one binding. As a reminder, the Ki is the dissociation constant of the complex between target and ligand, obtained from inhibition or displacement. The koff is the first-order rate constant of dissociation. The term kcat denotes the maximal rate divided by the concentration of active sites. Usually kcat/Km stands for the second-order rate constant that governs catalysis at low substrate concentration.

In one data set the test system is CaaD. The experiment in a line: Inhibition of CaaD by the internal standard tartrate. The data set is classed as biochemical, Pseudomonas pavonaceae 170. The conditions noted are these: at concentrations of 4 mM.
Data set [1] deals with T1, αY60W-CaaD (Pseudomonas pavonaceae, UniProt Q9EV84+Q9EV85, Q9EV85:Y61W).
T1 sequence (Q9EV85 2-76 Y61W): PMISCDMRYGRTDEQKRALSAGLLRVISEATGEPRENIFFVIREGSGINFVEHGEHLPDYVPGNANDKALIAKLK
T1 sequence (Q9EV84 2-71): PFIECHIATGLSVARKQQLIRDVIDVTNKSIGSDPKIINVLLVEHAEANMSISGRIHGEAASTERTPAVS

In data set [2] the target is T1, αY60W-CaaD. The conditions noted are these: competitive inhibition; 9 at 35–200 μM, bromide 0–50,000 μM.
The target of data set [3] is T1, αY60W-CaaD. The experiment in a line: Global fitting of kinetic data to the six-step model. The data set is classed as biochemical, Pseudomonas pavonaceae 170.
The test system of the next data set is αL57W-CaaD. The experiment in a line: Steady state activity assay. The conditions noted are these: αL57W mutant. The data set is classed as biochemical, Pseudomonas pavonaceae 170.
For data set [4], the target named is T1, αY60W-CaaD. The experiment in a line: Stopped-flow fluorescence binding of malonate semialdehyde. Details: species or system Pseudomonas pavonaceae 170.
Data set [5] has as its target T1, αY60W-CaaD. The conditions noted are these: αY60W-CaaD vs wild-type.
The target of the next data set is βI37W-CaaD (Pseudomonas pavonaceae, UniProt Q9EV84+Q9EV85, Q9EV84:I38W). The experiment in a line: biochemical.
The next data set has as its system αM7W-CaaD. Type of data set: biochemical. The conditions noted are these: αM7W-CaaD vs wild-type.
Data set [6] concerns the target T1, αY60W-CaaD. The data set is described as follows: Rapid-quench burst experiment, bromide quantified by IC.
For a further data set, the target named is T2, Wild-type CaaD (Pseudomonas pavonaceae, UniProt Q9EV84+Q9EV85).
T2 sequence (Q9EV85 2-76): T1 sequence (Q9EV85 2-76 Y61W)
T2 sequence (Q9EV84 2-71): T1 sequence (Q9EV84 2-71)
Described as above. The conditions noted are these: wild-type 400 μM; saturating 9; pH 8.1, 22 °C.

In data set [7] the target is T1, αY60W-CaaD. The experiment in a line: Stopped-flow fluorescence of the reaction with 9, conventional analysis. The data set is classed as biochemical, Pseudomonas pavonaceae 170.
Another data set deals with O=C(O)/C=C/Br. The data set is described as follows: purified protein, by the assay type.
Substrate in data set [8]: O=C(O)/C=C/Br
The experiment in a line: purified protein, by the assay type. The conditions noted are these: other: wild-type CaaD, 100 mM Na2HPO4 buffer pH 8.1, 22 °C.

The mark [9] stands for this setting: Table 2, αY60W 400 μM, saturating 9, pH 8.1, 22 °C.
[10] abbreviates: Table 3, enzyme concentration 200 μM, 9 at 10,000 μM.
Setting [11] is: Table 3, enzyme concentration 400 μM, 9 at 10,000 μM.
Setting [12] is: Table 3, enzyme concentration 600 μM, 9 at 10,000 μM.
Where [13] appears, read: other: αM7W, 100 mM Na2HPO4 buffer pH 8.1, 22 °C, pH 8.1, 22.0 °C.
[14] abbreviates: other: using the numbers in Table 4 and Scheme 3.

Read-outs that look alike come from different tables or passages of the source. Where only a bound is given, the exact number is not on record here.

For the molecule `O=C(O)C(O)C(O)C(=O)O` (centres unmarked) [Tartrate], the “inhibition of CaaD” value in the data set with CaaD is “does not inhibit”.
For `Br` [bromide], on αY60W-CaaD [1] (bromide bound to αY60W-CaaD), the increase in fluorescence was ~ 14%. At αY60W-CaaD [1] (fit by simulation), the “fluorescence factor for enzyme-bound bromide” value is listed as 1.17. In addition, the Kd at αY60W-CaaD [1] (read-out: Kd, Br-, fit by simulation, koff fixed at 200 s^−1) was 12 mM; on αY60W-CaaD [1] (read-out: predicted Kd, saturation of the fluorescence signal, hyperbolic fit), 7.4 mM; on αY60W-CaaD [3] (read-out: Kd,Br, best fit, global fit, k5 held fixed at 200 s^−1), 12.5 mM. Also, on αY60W-CaaD [2], the Ki was ~10 mM.
Consider `O=C(O)/C=C/Cl` [compound 2, trans-3-chloroacrylic acid], for which the activity result in the data set on αL57W-CaaD is listed as “no activity”.
Take `O=CCC(=O)O` [compound 4, malonate semialdehyde]: the Kd is 1.1 mM on αY60W-CaaD [4] (Kd (koff / kon), estimate from conventional kon and koff); ~0.6 mM at αY60W-CaaD [4] (Kd, 4, calculated from simulation kon and koff); 0.38 mM on αY60W-CaaD [4] (Kd, end-point fluorescence titration fit to Equation S2). Besides, at αY60W-CaaD [4] (fit by simulation), the “fluorescence factor for enzyme bound to 4” value was 1.14. For the same molecule, the koff was 28 s⁻¹ on αY60W-CaaD [4] (read-out: koff, 4, conventional analysis, kobs vs [4], 250 ms) and 17 s⁻¹ on αY60W-CaaD [4] (read-out: koff, 4, fit by simulation (250 ms)). Moreover, the “increase in the fluorescence signal” value on αY60W-CaaD [4] (upon mixing αY60W-CaaD with 4) worked out at 16%.
As for `O=C(O)/C=C/Br` [compound 9, trans-3-bromoacrylate], the “decrease in Km compared with wild-type” value at αY60W-CaaD [5] is ~ 1.5 fold. Besides, the activity entry in the data set with αL57W-CaaD is “no activity”. Also, the Kd at βI37W-CaaD was > 40 mM. For the same molecule, in the data set with αM7W-CaaD, the “decrease in kcat compared with wild-type” value is reported as ~ 4 fold. In the data set on αM7W-CaaD, the “decrease in kcat/Km compared with wild-type” value is given as 4 fold. The “Burst Amplitude (A)” value worked out at 0.9 at αY60W-CaaD [6] (setting [9]); 0.85 at αY60W-CaaD [6] (setting [10]); 0.9 at αY60W-CaaD [6] (setting [11]); 0.94 at αY60W-CaaD [6] (setting [12]); 0.8 on Wild-type CaaD. The kburst at αY60W-CaaD [6] (setting [9]) is 86 ± 10 s⁻¹; at αY60W-CaaD [6] (setting [10]) it was 43 ± 3 ^c s^−1; at αY60W-CaaD [6] (setting [11]), 86 ± 20 s⁻¹; at αY60W-CaaD [6] (setting [12]), 107 ± 15 s⁻¹; on Wild-type CaaD it was 90 ± 20 ^c s^−1. Further, the “kcat (calculated from the burst equation)” value on αY60W-CaaD [6] (setting [9]) was 2.5 ± 0.5 s⁻¹; at αY60W-CaaD [6] (setting [10]), 1.8 ± 0.5 s⁻¹; at αY60W-CaaD [6] (setting [11]), 2.5 ± 0.5 s⁻¹; at αY60W-CaaD [6] (setting [12]), 2.8 ± 0.5 s⁻¹; at Wild-type CaaD, 3 ± 0.5 s⁻¹. For the same molecule, the steady state turnover on αY60W-CaaD [6] (summary of Tables 2 and 3 (CaaD and αY60W-CaaD), 9 at 10 mM) was 3 s⁻¹. The “f/f0 (fluorescence scaling factor), best fit” value on αY60W-CaaD [3] (global fit to Scheme 4, fractional change in enzyme fluorescence) is recorded as 0.710. In addition, the “k3, best fit” value at αY60W-CaaD [3] (global fit, formation of E*PQ, k-3 fixed at 1 s^−1) stood at 9.6 s⁻¹. The “net forward rate kfor” value on αY60W-CaaD [7] (fit to Eq. 3) is reported as ~ 8 s^−1. Moreover, the “apparent reverse rate krev” value at αY60W-CaaD [7] (fit to Eq. 3, equal to kcat) was ~ 3 s^−1. Further, the “maximum rate of the fluorescence change” value on αY60W-CaaD [7] (single exponential fit, first 1 s) was ~ 10 s^−1.
For the molecule “αM7W-CaaD (Pseudomonas pavonaceae; Q9EV85:M8W)”, in the data set with O=C(O)/C=C/Br (setting [13]), the Km turned out to be 120 ± 10 OM, the kcat worked out at 0.6 s⁻¹ and the kcat/Km was found to be 3000 M⁻¹ s⁻¹.
Regarding “αY60W-CaaD (Pseudomonas pavonaceae; Q9EV85:Y61W)”, in the data set on O=C(O)/C=C/Br (setting [14]), the Km was 95 µM and the kcat was 2.2 s⁻¹. In addition, in the data set with O=C(O)/C=C/Br (other: αY60W, 100 mM Na2HPO4 buffer pH 8.1, 22 °C, pH 8.1, 22.0 °C), the Km worked out at 70 ± 3.5 OM.

B1: Wild-type CaaD (Pseudomonas pavonaceae) (protein)
chain 1: T1 sequence (Q9EV85 2-76 Y61W)
chain 2: T1 sequence (Q9EV84 2-71)
Consider B1, for which, in data set [8], the Km was determined as 120 ± 10 OM, the kcat amounted to 2.5 s⁻¹ and the kcat/Km worked out at 13000 M⁻¹ s⁻¹.

The values are drawn from publication PMC3518313 (Biochemistry, 2012).
